{
  "source": "patent US9867798B2",
  "about": "“Ladostigil therapy for immunomodulation” (priority 2012, dated 2018)",
  "key": {"[1]": {"test_system": "mice with DSS-induced colitis", "assay": "Acute colitis induced by DSS in mice: body weight, stool, bleeding, DAI, colon length", "type": "in vivo, BALB/c OlaHsd mice", "procedure": "(§1) BALB/c OlaHsd male mice aged 8-9 weeks and weighing 25-30 g were purchased from Harlan (Jerusalem, Israel) and housed in standard cages of up to 5 per cage in the pathogen free Animal Facility of the Institute for Drug Research. All experiments were performed in accordance with the Principles of Laboratory Animal Care (NIH publication #85-23, revised 1985) protocols MD-09-12197-4. Acute colitis was induced in mice by administration of 5% DSS solution (M.Wt.=[…], MP Biomedicals, LLC, Solon, Ohio, USA) in water for 8 days. The DSS solution was freshly prepared every day. Mice were provided with food and water or DSS solution ad libitum during the experiment. They were divided into groups of 10 as follows: Vehicle control group: mice drank water and were given water (1 ml/100 gm) once daily by gavage for 8 days; Drug control group: mice drank water and were given ladostigil (10 mg/kg) by gavage once daily for 8 days. DSS untreated group: mice drank 5% DSS for 7 days and water on the 8th day and were given water (1 ml/100 g) once daily by gavage for 8 days. Drug treated group: mice drank 5% DSS followed by water as above and were given ladostigil (5 or 10 mg/kg) by gavage once daily for 8 days. The volume of 5% DSS solution consumed was measured for each group of mice and the average volume/mouse was calculated. On the eighth day, the mice were anesthetized by CO2 and sacrificed by cervical dislocation 2 h after the last dose of ladostigil. Samples of colon and spleen were taken for measurement of cytokines MPO, cytokines and ChE activity.\nBody weight, stool consistency and the presence of blood in the stools was recorded daily for each mouse. […] The score ranged between 0-4 for all three parameters and was composed as follows: Weight loss: none=0, 1-5%=1, 5-10%=2, 10-20%=3, >20%=4. Percent of weight loss on days 7 and 8 relative to the first day was calculated for all the groups. […] Bleeding: none=0, hemoccult=2, gross bleeding=4. The maximum DAI score was 4 based on a combination of scores of weight loss (relative to that on the first day of the experiment), stool consistency and bleeding, divided by 3. After sacrifice the length of the colon segment from the cecum to the rectum was measured."}, "[2]": {"test_system": "AChE", "conditions": "51 and 70.1 mg/kg/day, doses effective in ameliorating EAE; cited from earlier work"}, "[3]": {"test_system": "cholinesterase (AChE and BuChE)", "assay": "Cholinesterase activity in spleen and colon of mice drinking DSS (Ellman)", "type": "in vivo", "conditions": "for ChE activity colon / ChE activity spleen: DSS 5%, 8 days", "procedure": "as §1\nIn experiments on the effect of chronic treatment with ladostigil on ChE activity in mice drinking DSS, the spleen was rapidly removed as described above, together with a colon segment of about 0.5 cm in length taken from the proximal area. Spleen and colon segments were washed in cold phosphate buffered saline (PBS) before they were frozen at −80° C. For assay, the tissue was unfrozen and weighed and PBS was added to each tissue at a ratio of 1 mg tissue to 1 ml. Tissues were homogenized at a speed of 24,000 rpm in cold phosphate buffer pH 7 containing 0.1% Triton and centrifuged at 14000 rpm. Aliquots of plasma and the supernatant from the spleen and colon were incubated with acetylthiocholine and dinitro benzoic acid in phosphate buffer pH 7 and the rate of development of the yellow color was measured as described by Ellman et al, (1961). Percent inhibition of ChE activity was calculated by comparison with that of control mice given water by gavage. Protein concentration was determined by means of by Pierce BCA Protein Assay Kit (Thermo Scientific, USA) according to the manufacturer's instructions. It is noted, that ChE activity in the colon and spleen of mice is attributed mainly to that of AChE while that in mouse plasma is mainly attributable to BuChE."}, "[4]": {"test_system": "cholinesterase (mostly BuChE)", "assay": "ChE inhibition in gerbil plasma (Ellman)", "type": "in vivo, Psammomys obesus", "conditions": "17 mg/kg/day, three hours after the last gavage, vs same gerbil before treatment", "procedure": "Male Psammomys obesus gerbils aged 3.5-4 months were given a high-energy diet consisting of 938.5 g/Kg version of 2018SC+F Harlan Tekled Ltd., USA, supplemented with soybean oil to a final fat concentration of 6%. After one week on the diet, blood was taken for measurement of glucose and ChE activity. Half of the animals were given ladostigil (17 mg/kg/day) by gavage while the remainder received tap water by the same route. Blood was taken from the tail once weekly for measurement of glucose as described in Kalman R., et al, (2001). Lab Anim. 35:346-352. After three weeks of treatment the animals they were deeply anesthetized, blood was taken by cardiac puncture for measurement of ChE activity, glucose and insulin levels and the pancreas removed for section and staining with haematoxylin and eosin and the number of islets counted. Blood glucose of 11 animals had reached values exceeding 200 mg/dL after one week on the high energy diet and the average value for the whole group was 300±27 mg/dL. […] It is noted, that cholinesterase activity in plasma of Psammomys obesus is mostly mediated by butyrylcholinesterase (BuChE) rather than by AChE."}, "[5]": {"test_system": "IL-1β and MPO in colon", "assay": "Cytokines and myeloperoxidase in colon of DSS-treated mice", "type": "in vivo", "conditions": "8th day of DSS ingestion, 5 vs 10 mg/kg", "procedure": "TNF-α, IL-6, and IL-1β levels in homogenized colon were measured by means of a BioLegend ELISA Mouse kit. One cm of colon was homogenized in ice-cold PBS buffer containing protease inhibitor cocktail (Sigma, St. Louis, Mo., USA; dilution 1:100) using a Polytron homogenizer, and then centrifuged for 15 min at 14,000 rpm at 4° C. Supernatants were diluted 1:5 in diluent buffer supplied in the kit and applied to 96-well MaxiSorb Elisa plates according to manufacturer's protocol. Total protein concentration in the tissue supernatant was measured by means of a BCA kit. Levels of cytokines are expressed as pg/mg total tissue protein.\nNeutrophil infiltration was monitored by measuring myeloperoxidase (MPO) activity in colon segments according to the protocol described by Bradley (1982) in 96-well micro-titer plates by mixing 10 μl of the supernatant with 290 μl of o-dianisidine dihydrochloride solution. Data were interpolated from a MPO standard curve. MPO activity was expressed as units per μg total protein measured in the sample by Pierce BCA Protein Assay Kit as described above."}},
  "data": [
    {"compound": "C#CCN[C@@H]1CCc2ccc(OC(=O)N(C)CC)cc21", "note": "[Ladostigil, R(+)-6-(N-methyl, N-ethyl-carbamoyloxy)-N′-propargyl-1-aminoindan]", "values": [
      {"measurement": "Decrease in colon length and signs of hyperemia and inflammation", "setting": "[1]; 5% DSS, 5 and 10 mg/kg, untreated decrease >30%", "result": "significantly less"},
      {"measurement": "Reduction of DSS-induced weight loss", "setting": "[1]; 5% DSS, both doses (5 and 10 mg/kg), untreated loss 15%", "result": "~50", "unit": "%"},
      {"measurement": "Diarrhea", "setting": "[1]; 5% DSS, day 7, both doses (5 and 10 mg/kg)", "result": "significantly decreased"},
      {"measurement": "Bleeding", "setting": "[1]; 5% DSS, day 8, 5 mg/kg", "result": "significantly decreased"},
      {"measurement": "Disease activity index (DAI)", "setting": "[1]; 5% DSS, days 7 and 8, drug treated groups vs DSS-water, p<0.01", "result": "significantly different from that of the group drinking DSS given water"},
      {"measurement": "Body weight increase during 8 days", "setting": "[1]; mice receiving 5 or 10 mg/kg by gavage, no DSS", "result": "2-3%"},
      {"measurement": "Inhibition of AChE in blood", "setting": "[2]", "result": "60-65%"},
      {"measurement": "Inhibition of AChE in brain", "setting": "[2]", "result": "47-52%"},
      {"measurement": "Inhibition of ChE in the colon", "setting": "[3]; 5 or 10 mg/kg", "result": "Neither dose of ladostigil caused any significant inhibition"},
      {"measurement": "ChE activity colon", "setting": "[3]; 5 mg/kg orally once daily", "result": "18.5 ± 1.4 μmoles of acetylthiocholine hydrolyzed/min/mg protein"},
      {"measurement": "ChE activity spleen", "setting": "[3]; 5 mg/kg orally once daily", "result": "10.8 ± 0.6 μmoles of acetylthiocholine hydrolyzed/min/mg protein"},
      {"measurement": "ChE activity colon", "setting": "[3]; 10 mg/kg orally once daily", "result": "16.7 ± 1.2 μmoles of acetylthiocholine hydrolyzed/min/mg protein"},
      {"measurement": "ChE activity spleen", "setting": "[3]; 10 mg/kg orally once daily", "result": "10.2 ± 0.7 μmoles of acetylthiocholine hydrolyzed/min/mg protein"},
      {"measurement": "ChE inhibition in plasma", "setting": "[4]", "result": "50±3", "unit": "%"},
      {"measurement": "Reduction of IL-1β levels and MPO activity in colon", "setting": "[5]", "result": "5 mg/kg was more effective than 10 mg/kg"}
    ]}
  ]
}
